Reference: patent publication US20210330756A1, “Acetylation of Miro1” (University of South Carolina, priority 2020, published 2021)

Tests used:
[1] = test system: axonal mitochondrial transport in DRG neurons; assay: FRAP of Mito-GFP in distal axons of DRG neurons; format: cell-based, rat; settings: for effect on MAG-Fc-dependent decrease in Mito-GFP recovery / mitochondrial transport: pretreatment: TubA 10 μM, Y27632 10 μM or BAPTA-AM 3 μM
Protocol: MAG or Aggrecan exposures were performed as bath application or on coated substrates. For bath application, dissociated DRGs were cultured for 48 h and treated with 25 μg/ml of MAG-Fc (R&D Systems; 538-MG), 25 μg/ml Fc control (R&D Systems; 110-HG), or 10 μg/ml of Aggrecan (Sigma-Aldrich; A1960) for 4 h. Cultures were pretreated with either Ca^2+ chelator BAPTA-AM (3 μM; Sigma-Aldrich; A1076), ROCK inhibitor Y27632 (10 μM; Sigma-Aldrich; SCM075), HDAC6 inhibitor TubA (10 μM; R&D Systems; 6270), Thapsigargin (1 μM; Sigma-Aldrich; T9033), Rho Activator II (1 μg/ml; Cytoskeleton; CNO3), or equivalent volume DMSO 30 min before MAG-Fc, Aggrecan, or controls. For substrate-bound experiments, adult DRGs were cultured on glass bottom dishes (Greiner) that were coated with 25 μg/ml Aggrecan in addition to the laminin/poly-D-lysine substrate.
Mito-KR- and Mito-GFP-expressing DRG neurons were used for FRAP analyses at 48-72 h after transfection. To evaluate mitochondrial motility in Mito-KR-expressing neurons, Mito-KR signals were photobleached using continual exposure to an argon laser set at 594 nm for 30 s (100% laser power) The bleached ROI was then monitored for recovery using an argon laser set at 580 nm every 10 s over 16 min (13% laser power). For FRAP analyses with Mito-GFP, GFP signals were photobleached in a 50 μm ROI using an argon laser set at 488 nm every 10 s for 16 min (70% laser power). The same excitation was used for post-bleach imaging to assess recovery every 10 s for 16 min. For axon shaft FRAP experiments in Mito-GFP-expressing neurons, ROIs of ˜50 μm in length (without branches) were imaged >100 μm proximal to the growth cone. Prebleach, bleach, and post-bleach sequences were the same as for Mito-GFP above. In all cases, neurons were imaged over 40 s or more to acquire baseline Mito-KR or Mito-GFP signals before photobleaching using an argon laser (580 nm at 13% power for Mito-KR and 488 nm at 31% power for Mito-GFP).
Vesicle trafficking was quantified using differential ImageJ Difference Tracker Plug-in (Andrews et al., 2010). 50-80-μm long unbranched axon segments at approximately the mid-region between growth cone and cell body were analyzed. Kymographs were generated using ImageJ Kymograph Plug-in. For analyses of axon retraction in the CALI experiment, the distance from the distal tip of the growth cone in the pre-CALI image sequence was used as the baseline (t=1 min). The distance between the growth tip at end of the post-CALI sequence and the pre-CALI baseline was measured using LAS-X software. Movement of ≥0.5 μm toward the axon shaft was counted as retracted. Fluorescence emission of the Mito-KR post-CALI was analyzed using ImageJ. For normalizing intensities across FRAP image sets, fluorescence intensity at each time point was scaled using the LAS-X FRAP module so that the residual fluorescence signal at t=0 min (post-bleach) was set at 0 and the prebleach intensity was set at 100% for each bleached ROI. For axon shaft FRAP analyses, each 50-μm bleached ROI was divided into […], and the fluorescence intensity recovery was measured as described above. EMs at 1,900× and 4,800× magnification across the crosssectional surface of each sciatic nerve were used for in vivo analyses of mitochondrial content. A minimum of 75 unmyelinated axons was analyzed for each nerve. All unmyelinated axons from each analyzed image were included for quantitative studies. The total number of mitochondria was determined in each unmyelinated axon in the field and was divided by the total number of unmyelinated axons for all subjects. […] was determined by changes in JC-1 fluorescence. JC-1 exists either as a green fluorescent monomer at depolarized membrane potentials or as an orange-red fluorescent aggregate at hyperpolarized membrane potentials. […]

Ac-histone H4 = assay: Immunoblotting for Ac-histone H4 in adult DRG neurons (HDAC specificity); format: cell-based, rat
Protocol: We tested for this specificity in the adult DRG neurons from above by immunoblotting. […] (A) Number of mitochondria in growth cones after exposing DRG cultures to 10 μM TubA versus vehicle (control) for 1 h is shown as average fold-change in number of mitochondria per growth cone±SEM (n=13 axons across three culture preparations; *, P≤0.05 by one-way ANOVA with Bonferroni post hoc analysis). (B) Representative EMs of Remak bundles (arrowheads) in naive Sciatic nerve and nerves after 2 h vehicle (DMSO) or TubA injection are shown. Arrows indicate mitochondria in the unmyelinated axons. Note that a Schwann cell nucleus (asterisk) is seen in the Remak bundle for DMSO image but not the other two micrographs (scale bar=3 μm). (C) Quantification of number of mitochondria per unmyelinated axon from EM images as in B is shown as average±SEM (n≥5; *****, P≤0.0001 by one-way ANOVA with Bonferroni post hoc analysis). (D-F) Quantification for indicated parameters for mitochondrial transport in sciatic nerve in vivo using tetramethylrhodamine, ethyl ester, perchlorate to visualize mitochondria is shown.
For immunoblotting, protein lysates or immunoprecipitates were denatured by boiling in Laemmli sample buffer, fractionated by SDS-PAGE, and transferred to nitrocellulose membranes. Blots were blocked for 1 h at room temperature with 5% nonfat dry milk in TBS with 0.1% Tween 20 (TBST). Primary antibodies diluted in 5% BSA in TBST were added to the membranes and incubated overnight at 4° C. with rocking. Primary antibodies consisted of rabbit anti-Myc (1:2,000; Cell Signaling; 71D10), rabbit anti-RHOT1 antibody (1:1,000; Aviva Systems Biology; ARP44817 P050), rabbit anti-HDAC6 antibody (1:2,000; Cell Signaling; 7558), rabbit anti-ERK1 (1:5,000; Abcam; ab32537), and affinity-purified custom rabbit anti-Miro1-AcK105 (1:2,500; Twiss laboratory, see above) antibodies. For the anti-Miro1-AcK105 antibody, preimmune and test-bleed sera were used at 1:1,000 dilutions to initially evaluate for specificity. After washing in TBST, blots were incubated with HRP-conjugated anti-rabbit IgG antibodies (1:5,000; Jackson Immunoresearch) diluted in blocking buffer for 1 h at room temperature. Signals were detected using ECL Prime (GE Healthcare) after extensive washing.

**Q.** What does the source list for `C[C@@H](N)[C@H]1CC[C@H](C(=O)Nc2ccncc2)CC1` [Y27632]?
**A.** additive or synergistic effect when combined with 3 μM BAPTA-AM ([1]; MAG-Fc, Mito-GFP FRAP): no additive or synergistic effect; additive or synergistic effect when combined with 10 μM TubA ([1]; MAG-Fc, Mito-GFP FRAP): no additive or synergistic effect; additive effect when combined with 10 μM TubA ([1]; aggrecan 10 μg/ml, Mito-GFP FRAP): no significant additive effects; effect on aggrecan-dependent decrease in Mito-GFP recovery ([1]; aggrecan 10 μg/ml, TubA 10 μM or Y27632 10 μM): prevented the aggrecan dependent decrease in Mito-GFP recovery; effect on MAG-Fc-dependent decrease in Mito-GFP recovery / mitochondrial transport ([1]; 960 s after bleach): similarly blocked the decline in mitochondrial transport; effect on MAG-Fc-dependent decrease in Mito-GFP recovery / mitochondrial transport ([1]; 960 s after bleach, listed as ROCK inhibitor): similarly prevented the MAG-dependent decrease in mitochondrial transport

**Q.** `O=C(CCCN1C(=O)c2cccc3cccc(c23)C1=O)NO` [Nullscript] was tested. Which “Ac-histone H4 levels” value (Ac-histone H4; 6.3 μM) did it give?
**A.** no change in Ac-histone H4 levels

**Q.** With `O=C(CCCCCN1C(=O)c2cccc3cccc(c23)C1=O)NO` [Scriptaid] as the compound, how does the “Ac-histone H4 levels” value (Ac-histone H4; Scriptaid, concentration not given) read?
**A.** clear increase in Ac-histone H4 levels

**Q.** What does the source list for `CC(=O)OCOC(=O)CN(CC(=O)OCOC(C)=O)c1ccccc1OCCOc1ccccc1N(CC(=O)OCOC(C)=O)CC(=O)OCOC(C)=O` [BAPTA-AM]?
**A.** basal Mito-GFP FRAP recovery after the first 5 min ([1]; 3 μM): no different than recovery in untreated cultures; basal Mito-GFP FRAP recovery in distal axons, first 5 min after bleach ([1]; 3 μM): increased recovery; effect on decrease in axonal mitochondrial transport seen upon direct activation of RhoA ([1]; 3 μM BAPTA-AM + 1 μg/ml Rho activator, 960 s after bleach): completely abrogated the decrease in axonal mitochondrial transport; additive or synergistic effect when combined with 10 μM TubA ([1]; MAG-Fc, Mito-GFP FRAP): No significant additive effects; effect on MAG-Fc-dependent decrease in Mito-GFP recovery / mitochondrial transport ([1]; 960 s after bleach): prevented the MAG-Fc attenuation of axonal mitochondrial transport
